Each compound was assayed against T1, USP7 (Homo sapiens, UniProt Q93009) (assay: USP7 Assay A (Ubitquin-Rhodamine 110 Assay)). Details: USP7 activity in USP7 assay A and B (table does not say which assay per compound); read-out: USP7_IC50.
T1 construct: USP7, construct USP7 (208-1102) 6*His, Viva Biotech; 6xHis (C); purchased Viva Biotech
Assay type: biochemical
Procedure, shortened: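 Ub-Rh110 cleavage in 20 mM Tris-HCl pH 8.0 with 1 mM GSH, 0.03% BGG, 0.01% Triton X-100; compound preincubated with enzyme 30 min before substrate.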

T1 sequence (Q93009 208-1102): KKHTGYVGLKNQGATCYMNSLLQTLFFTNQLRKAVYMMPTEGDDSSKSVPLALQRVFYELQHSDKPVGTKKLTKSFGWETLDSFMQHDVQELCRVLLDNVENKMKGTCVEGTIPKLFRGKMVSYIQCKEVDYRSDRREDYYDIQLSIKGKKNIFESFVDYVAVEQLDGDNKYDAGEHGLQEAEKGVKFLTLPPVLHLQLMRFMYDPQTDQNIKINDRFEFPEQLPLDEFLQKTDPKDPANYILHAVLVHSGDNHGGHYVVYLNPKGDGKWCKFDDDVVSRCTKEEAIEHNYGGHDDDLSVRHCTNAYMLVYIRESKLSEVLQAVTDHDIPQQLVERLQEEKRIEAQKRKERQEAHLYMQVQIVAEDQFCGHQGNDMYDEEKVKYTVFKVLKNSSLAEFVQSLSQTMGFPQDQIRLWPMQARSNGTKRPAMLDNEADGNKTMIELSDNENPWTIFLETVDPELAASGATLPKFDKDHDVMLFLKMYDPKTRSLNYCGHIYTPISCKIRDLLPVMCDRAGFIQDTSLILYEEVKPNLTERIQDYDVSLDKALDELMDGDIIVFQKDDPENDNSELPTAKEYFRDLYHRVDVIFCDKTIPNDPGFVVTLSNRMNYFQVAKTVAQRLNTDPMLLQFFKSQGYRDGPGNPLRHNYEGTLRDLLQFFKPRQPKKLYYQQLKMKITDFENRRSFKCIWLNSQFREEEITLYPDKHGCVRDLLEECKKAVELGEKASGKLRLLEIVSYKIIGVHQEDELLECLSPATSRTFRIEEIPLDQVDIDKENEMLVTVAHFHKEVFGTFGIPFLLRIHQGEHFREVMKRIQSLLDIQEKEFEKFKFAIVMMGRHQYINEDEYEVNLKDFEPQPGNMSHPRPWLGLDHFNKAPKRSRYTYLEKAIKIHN

SMILES	IC50 [nM]
Cc1nnc(-c2ccc(-n3ncc4c(=O)n(CC5(O)CCN(C(=O)c6ccc(F)cc6)CC5)cnc43)cc2)o1 [Compound I-712]	1000 to 10000
O=C(c1ccc(F)cc1)N1CCC(O)(C(CO)n2cnc3c(cnn3-c3ccc(F)cc3)c2=O)CC1 (stereo not shown) [Compound I-720]	1000 to 10000
O=C(C1CCc2cn[nH]c2C1)N1CCC(O)(Cn2cnc3c(cnn3-c3ccc(F)cc3)c2=O)CC1 (stereo not shown) [Compound I-724]	200 to 1000
Cn1ncc2c1CC(C(=O)N1CCC(O)(Cn3cnc4c(cnn4-c4ccc(F)cc4)c3=O)CC1)CC2 (stereo not shown) [Compound I-725]	1000 to 10000
O=C(c1cnn(C2CC2)c1)N1CCC(O)(Cn2cnc3c(cnn3-c3ccc(F)cc3)c2=O)CC1 [Compound I-726]	200 to 1000
Cn1cc(C2CCC(C(=O)N3CCC(O)(Cn4cnc5c(cnn5-c5ccc(F)cc5)c4=O)CC3)CC2)cn1 (stereo not shown) [Compound I-727]	200 to 1000
Cn1cc(C2CCC(C(=O)N3CCC(O)(Cn4cnc5c(cnn5-c5ccc(F)cc5)c4=O)CC3)CC2)cn1 (stereo not shown) [Compound I-728]	200 to 1000
O=C(C[C@H](C(F)F)n1ccc(Cl)n1)N1CCC(O)(Cn2cnc3c(cnn3-c3ccc(F)cc3)c2=O)CC1 [Compound I-731]	< 200
O=C(C[C@@H](C(F)F)n1ccc(Cl)n1)N1CCC(O)(Cn2cnc3c(cnn3-c3ccc(F)cc3)c2=O)CC1 [Compound I-732]	1000 to 10000
O=C(C[C@H](C(F)F)n1cc(Cl)cn1)N1CCC(O)(Cn2cnc3c(cnn3-c3ccc(F)cc3)c2=O)CC1 [Compound I-733]	200 to 1000
O=C(C[C@@H](C(F)F)n1cc(Cl)cn1)N1CCC(O)(Cn2cnc3c(cnn3-c3ccc(F)cc3)c2=O)CC1 [Compound I-734]	> 10000
Cc1cnn([C@H](CC(=O)N2CCC(O)(Cn3cnc4c(cnn4-c4ccc(F)cc4)c3=O)CC2)C(F)F)c1 [Compound I-735]	1000 to 10000
O=C(C1CCC(Oc2ccc(F)cn2)CC1)N1CCC(O)(Cn2cnc3c(cnn3-c3ccc(F)cc3)c2=O)CC1 (stereo not shown) [Compound I-737]	< 200
O=C(C1CCC(Oc2ccc(F)cn2)CC1)N1CCC(O)(Cn2cnc3c(cnn3-c3ccc(F)cc3)c2=O)CC1 (stereo not shown) [Compound I-738]	200 to 1000
O=C(C1CCC(Oc2cccc(F)n2)CC1)N1CCC(O)(Cn2cnc3c(cnn3-c3ccc(F)cc3)c2=O)CC1 (stereo not shown) [Compound I-739]	< 200
O=C(C1CCC(Oc2cccc(F)n2)CC1)N1CCC(O)(Cn2cnc3c(cnn3-c3ccc(F)cc3)c2=O)CC1 (stereo not shown) [Compound I-740]	200 to 1000
O=C(C1CCC(Oc2cccc(F)n2)CC1)N1CCC(O)(Cn2cnc3c(cnn3-c3ccccc3)c2=O)CC1 (stereo not shown) [Compound I-741]	< 200
O=C(C1CCC(Oc2cccc(F)n2)CC1)N1CCC(O)(Cn2cnc3c(cnn3-c3ccccc3)c2=O)CC1 (stereo not shown) [Compound I-742]	200 to 1000
O=C(C1CCC(Oc2ccc(F)cn2)CC1)N1CCC(O)(Cn2cnc3c(cnn3-c3ccccc3)c2=O)CC1 (stereo not shown) [Compound I-743]	1000 to 10000
O=C(C1CCC(Oc2ccc(F)cn2)CC1)N1CCC(O)(Cn2cnc3c(cnn3-c3ccccc3)c2=O)CC1 (stereo not shown) [Compound I-744]	200 to 1000
CC1(C(=O)N2CCC(O)(Cn3cnc4c(cnn4-c4ccc(F)cc4)c3=O)CC2)CCC(Oc2ccccn2)CC1 (stereo not shown) [Compound I-745]	1000 to 10000

SMILES	IC50 [nM]
CC1(C(=O)N2CCC(O)(Cn3cnc4c(cnn4-c4ccc(F)cc4)c3=O)CC2)CCC(Oc2ccccn2)CC1 (stereo not shown) [Compound I-746]	1000 to 10000
O=C(C1CCC(Oc2ncccn2)CC1)N1CCC(O)(Cn2cnc3c(cnn3-c3ccc(F)cc3)c2=O)CC1 (stereo not shown) [Compound I-747]	1000 to 10000
O=C(C1CCC(Oc2ncccn2)CC1)N1CCC(O)(Cn2cnc3c(cnn3-c3ccc(F)cc3)c2=O)CC1 (stereo not shown) [Compound I-748]	200 to 1000
O=C(C1CCC(Oc2cccnc2)CC1)N1CCC(O)(Cn2cnc3c(cnn3-c3ccc(F)cc3)c2=O)CC1 (stereo not shown) [Compound I-749]	< 200
O=C(C1CCC(Oc2cccnc2)CC1)N1CCC(O)(Cn2cnc3c(cnn3-c3ccc(F)cc3)c2=O)CC1 (stereo not shown) [Compound I-750]	200 to 1000
O=C(C1CCC(Oc2ccncc2)CC1)N1CCC(O)(Cn2cnc3c(cnn3-c3ccc(F)cc3)c2=O)CC1 (stereo not shown) [Compound I-751]	1000 to 10000
O=C(C1CCC(Oc2ccncc2)CC1)N1CCC(O)(Cn2cnc3c(cnn3-c3ccc(F)cc3)c2=O)CC1 (stereo not shown) [Compound I-752]	< 200
Cn1ccc(OC2CCC(C(=O)N3CCC(O)(Cn4cnc5c(cnn5-c5ccc(F)cc5)c4=O)CC3)CC2)n1 (stereo not shown) [Compound I-753]	200 to 1000
Cn1ccc(OC2CCC(C(=O)N3CCC(O)(Cn4cnc5c(cnn5-c5ccc(F)cc5)c4=O)CC3)CC2)n1 (stereo not shown) [Compound I-754]	200 to 1000
Cc1cc(OC2CCC(C(=O)N3CCC(O)(Cn4cnc5c(cnn5-c5ccc(F)cc5)c4=O)CC3)CC2)no1 (stereo not shown) [Compound I-755]	200 to 1000
Cc1cc(OC2CCC(C(=O)N3CCC(O)(Cn4cnc5c(cnn5-c5ccc(F)cc5)c4=O)CC3)CC2)no1 (stereo not shown) [Compound I-756]	200 to 1000
Cn1cc(OC2CCC(C(=O)N3CCC(O)(Cn4cnc5c(cnn5-c5ccc(F)cc5)c4=O)CC3)CC2)cn1 (stereo not shown) [Compound I-757]	200 to 1000
Cn1cc(OC2CCC(C(=O)N3CCC(O)(Cn4cnc5c(cnn5-c5ccc(F)cc5)c4=O)CC3)CC2)cn1 (stereo not shown) [Compound I-758]	200 to 1000
O=C(N1CCC(O)(Cn2cnc3c(cnn3-c3ccc(F)cc3)c2=O)CC1)N1CC[C@H]1Cc1ccccc1 [Compound I-760]	1000 to 10000
O=C(N1CCC(O)(Cn2cnc3c(cnn3-c3ccc(F)cc3)c2=O)CC1)N1CCc2cn[nH]c2C1 [Compound I-761]	< 200
Cn1ncc2c1CN(C(=O)N1CCC(O)(Cn3cnc4c(cnn4-c4ccc(F)cc4)c3=O)CC1)CC2 [Compound I-762]	1000 to 10000
Cn1nccc1NC1CCC(C(=O)N2CCC(O)(Cn3cnc4c(cnn4-c4ccc(F)cc4)c3=O)CC2)CC1 (stereo not shown) [Compound I-763]	1000 to 10000
Cn1nccc1NC1CCC(C(=O)N2CCC(O)(Cn3cnc4c(cnn4-c4ccc(F)cc4)c3=O)CC2)CC1 (stereo not shown) [Compound I-764]	200 to 1000
Cn1ccc(NC2CCC(C(=O)N3CCC(O)(Cn4cnc5c(cnn5-c5ccc(F)cc5)c4=O)CC3)CC2)n1 (stereo not shown) [Compound I-765]	1000 to 10000
Cn1ccc(NC2CCC(C(=O)N3CCC(O)(Cn4cnc5c(cnn5-c5ccc(F)cc5)c4=O)CC3)CC2)n1 (stereo not shown) [Compound I-766]	200 to 1000
O=C(C1CCC(Nc2ccccc2)CC1)N1CCC(O)(Cn2cnc3c(cnn3-c3ccc(F)cc3)c2=O)CC1 (stereo not shown) [Compound I-767]	200 to 1000

SMILES	IC50 [nM]
O=C(C1CCC(Nc2ccccc2)CC1)N1CCC(O)(Cn2cnc3c(cnn3-c3ccc(F)cc3)c2=O)CC1 (stereo not shown) [Compound I-768]	< 200
O=C(C1CCC(NC2CC2)CC1)N1CCC(O)(Cn2cnc3c(cnn3-c3ccc(F)cc3)c2=O)CC1 (stereo not shown) [Compound I-769]	200 to 1000
O=C(c1cnc(NC2CC2)o1)N1CCC(O)(Cn2cnc3c(cnn3-c3ccc(Cl)cc3)c2=O)CC1 [Compound I-771]	200 to 1000
Cn1cc(C(=O)N2CCC(O)(Cn3cnc4c(cnn4-c4ccc(Cl)cc4)c3=O)CC2)cn1 [Compound I-772]	200 to 1000
Cn1cc(-c2ccc(-n3ncc4c(=O)n(CC5(O)CCN(C(=O)C6(C)CC6)CC5)cnc43)cc2)cn1 [Compound I-775]	200 to 1000
Cn1cc(-c2ccc(-n3ncc4c(=O)n(CC5(O)CCN(C(=O)c6cnc(C7CC7)o6)CC5)cnc43)cc2)cn1 [Compound I-776]	< 200
Cc1cnn(-c2ccc(-n3ncc4c(=O)n(CC5(O)CCN(C(=O)c6cnc(C7CC7)o6)CC5)cnc43)cc2)c1 [Compound I-779]	< 200
O=C(c1cnc(C2CC2)o1)N1CCC(O)(Cn2cnc3c(cnn3-c3ccc(-n4cccn4)cc3)c2=O)CC1 [Compound I-780]	< 200
CC1(C(=O)N2CCC(O)(Cn3cnc4c(cnn4-c4ccc(-n5cccn5)cc4)c3=O)CC2)CC1 [Compound I-781]	200 to 1000
CC1(C(=O)N2CCC(O)(Cn3cnc4c(cnn4-c4ccc(-n5cccn5)cc4)c3=O)CC2)CCC1 [Compound I-782]	< 200
C[C@@]1(O)CCN(c2ccc(-n3ncc4c(=O)n(CC5(O)CCN(C(=O)C6CCCCC6)CC5)cnc43)cc2)C1 [Compound I-783]	200 to 1000
O=C(C[C@@H](C(F)F)n1ccc(F)n1)N1CCC(O)(Cn2cnc3c(cnn3-c3ccc(N4CC5CC5C4)cc3)c2=O)CC1 (stereo partly shown) [Compound I-784]	< 200
O=C(C[C@H](C(F)F)n1ccc(F)n1)N1CCC(O)(Cn2cnc3c(cnn3-c3ccc(N4CC5CC5C4)cc3)c2=O)CC1 (stereo partly shown) [Compound I-785]	200 to 1000
CC1(C(=O)N2CCC(O)(Cn3cnc4c(cnn4-c4ccc(NC5CCC(F)(F)CC5)cc4)c3=O)CC2)CC1 [Compound I-786]	200 to 1000
O=C(C[C@H](C(F)F)n1ccc(F)n1)N1CCC(O)(Cn2cnc3c(cnn3-c3cccc(N4CCOCC4)c3)c2=O)CC1 [Compound I-788]	1000 to 10000
O=C(C[C@@H](C(F)F)n1ccc(F)n1)N1CCC(O)(Cn2cnc3c(cnn3-c3cccc(N4CCOCC4)c3)c2=O)CC1 [Compound I-789]	< 200
O=C(C[C@@H](C(F)F)n1ccc(F)n1)N1CCC(O)(Cn2cnc3c(cnn3-c3cccc(N4CC5CC5C4)c3)c2=O)CC1 (stereo partly shown) [Compound I-790]	< 200
O=C(C[C@H](C(F)F)n1ccc(F)n1)N1CCC(O)(Cn2cnc3c(cnn3-c3cccc(N4CC5CC5C4)c3)c2=O)CC1 (stereo partly shown) [Compound I-791]	200 to 1000
CN1CCN(c2cccc(-n3ccc4c(=O)n(CC5(O)CCN(C(=O)C[C@H](C(F)F)n6cccn6)CC5)cnc43)c2)CC1 [Compound I-792]	200 to 1000
CN1CCN(c2cccc(-n3ccc4c(=O)n(CC5(O)CCN(C(=O)C[C@@H](C(F)F)n6cccn6)CC5)cnc43)c2)CC1 [Compound I-793]	< 200

Same assay, conditions: USP7 assay A and B (table does not say which assay per compound); read-out: USP7_IC50

SMILES	IC50 [nM]
O=C(c1ccc(F)cc1)N1CCC(O)(Cn2cnc3c(cnn3-c3ccc(C4(O)CC4)cc3)c2=O)CC1 [Compound I-713]	1000 to 10000
Cn1ccc(Oc2ccc(C(=O)N3CCC(O)(Cn4cnc5c(cnn5-c5ccc(F)cc5)c4=O)CC3)cc2)n1 [Compound I-719]	1000 to 10000

Source: patent publication US9902728B2, “Pyrrolo and pyrazolopyrimidines as ubiquitin-specific protease 7 inhibitors” (Forma Therapeutics, Inc., priority 2014, dated 2018)
